Assay results: patent US20030045557A1, “Thiadiazoles and oxadiazoles and their use as phosphodiesterase-7 inhibitors” (priority 2000, published 2003)

target: T1, PDE7A1 (Homo sapiens, UniProt Q13946); assay: In vitro inhibition of phosphodiesterase 7 (enzymatic activity, cAMP substrate 50 nM); type: biochemical; conditions: PDE7A1 expressed in Sf 21 insect cells; cAMP 50 nM; reaction 10 minutes; read-out: IC50 (PDE7)
T1 construct: made in house; host or cells: Sf21 insect cells (baculovirus expression system)
T1 sequence (Q13946 whole entry, species assumed): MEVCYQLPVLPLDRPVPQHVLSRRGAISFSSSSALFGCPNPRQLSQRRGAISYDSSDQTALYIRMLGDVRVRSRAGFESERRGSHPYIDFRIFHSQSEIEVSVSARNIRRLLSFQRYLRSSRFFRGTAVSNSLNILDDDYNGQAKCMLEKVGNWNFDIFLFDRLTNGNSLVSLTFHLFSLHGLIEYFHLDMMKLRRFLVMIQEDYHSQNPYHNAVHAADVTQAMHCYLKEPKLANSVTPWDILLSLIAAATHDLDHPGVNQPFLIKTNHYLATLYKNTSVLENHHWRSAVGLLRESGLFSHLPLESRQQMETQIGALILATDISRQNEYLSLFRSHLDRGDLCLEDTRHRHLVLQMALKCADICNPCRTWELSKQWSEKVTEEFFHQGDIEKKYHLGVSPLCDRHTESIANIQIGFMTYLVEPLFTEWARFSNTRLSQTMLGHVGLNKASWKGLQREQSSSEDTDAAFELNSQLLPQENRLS
Method: The capacity of the compounds of the invention to inhibit cyclic nucleotide phosphodiesterases was evaluated by measuring their IC50 (concentration necessary to inhibit the enzymatic activity by 50%).
PDE3A3, PDE4D3, and PDE7A1 were cloned and expressed in insect cells Sf 21 using the baculovirus expression system. The source of PDE103 and of PDE503 were human cell lines (respectively TPH1 human monocytes and MCF7 human breast adenocarcinoma). The various types of phosphodiesterases were obtained partially purified on an anion exchange column (Mono Q) according to a method adapted from Lavan B. E., Lakey T., Houslay M.D., Biochemical Pharmacology, 1989;38(22):4123-4136.
Measurement of the enzymatic activity for the various types of PDE was then made according to a method adapted from Thompson W. J. et al., Advances in Cyclic Nucleotide Research, ed. G. Brooker et al. New York: Raven Press, 1979;10:69-92.
The substrate used was cGMP for PDE1 and PDE5 and cAMP for PDE3, PDE4, and PDE7. The substrate concentration was 0.2 μM for PDE1, PDE3, and PDE5, 0.25 μM for PDE4, and 50 nM for PDE7.
The enzymatic reaction was stopped after 1 hour for PDE1, PDE3, and PDE5 and 10 minutes for PDE4 and PDE7.

Row | SMILES | IC50 [nM]
1 | Cn1nc(-c2ccc(Cl)cc2)s/c1=N\[C@@H]1CCCC[C@H]1O (relative stereo) [Example I8, (1R*,2R*)-2-[5-(4-Chloro-phenyl)-3-methyl-3H-[1,3,4]thiadiazol-2-ylideneamino]-cyclohexanol] | 450
2 | Cn1nc(-c2ccc(Cl)cc2)s/c1=N\[C@@H]1CCCC[C@@H]1O (relative stereo) [I3,25, (1R*,2S*)-2-[5-(4-Chloro-phenyl)-3-methyl-3H-[1,3,4]thiadiazol-2-ylideneamino]-cyclohexanol] | 1200
3 | Cn1nc(-c2ccc(Cl)cc2)s/c1=N\C1CC2CCC1C2 (centres unmarked) [Example I7, Bicyclo[2.2.1]hept-2-yl-[5-(4-chloro-phenyl)-3-methyl-3H-[1,3,4]thiadiazol-2-ylidene]-amine] | 1050
4 | Cn1nc(-c2ccc(C(F)(F)F)cc2)s/c1=N\C1CCCCC1 [Example I11, Cyclohexyl-[3-methyl-5-(4-trifluoromethyl-phenyl)-3H-[1,3,4]thiadiazol-2-ylidene]-amine] | 980
5 | Cn1nc(-c2cccc(Cl)c2)s/c1=N\C1CCCCC1 [Example I13, [5-(3-Chloro-phenyl)-3-methyl-3H-[1,3,4]thiadiazol-2-ylidene]-cyclohexyl-amine] | 700
6 | Cn1nc(-c2ccc(O)c(O)c2)s/c1=N\C1CCCCC1 [Example I22, 4-(5-Cyclohexylimino-4-methyl-4,5-dihydro-[1,3,4]thiadiazol-2-yl)-benzene-1,2-diol; compound with trifluoro methanesulfonic acid] | 1000
7 | COc1cc(-c2nn(C)/c(=N/C3CCCCC3)s2)cc(OC)c1O [Example I23, 4-(5-Cyclohexylimino-4-methyl-4,5-dihydro-[1,3,4]thiadiazol-2-yl)-2,6-dimethoxy-phenol] | 850
8 | Cn1nc(-c2ccc3cccc(O)c3n2)s/c1=N\C1CCCCC1 [Example I24, 2-(5-Cyclohexylimino-4-methyl-4,5-dihydro-[1,3,4]thiadiazol-2-yl)-quinolin-8-ol] | 360
9 | Cn1nc(-c2cnccn2)s/c1=N\C1CCCCC1 [Example I25, Cyclohexyl-(3-methyl-5-pyrazin-2-yl-3H-[1,3,4]thiadiazol-2-ylidene)-amine] | 470
10 | COc1ccc(/C=C/c2nn(C)/c(=N/C3CCCCC3)s2)cc1O [Example I26, 5-[(E)-2-(5-Cyclohexylimino-4-methyl-4,5-dihydro-[1,3,4]thiadiazol-2-yl)-vinyl]-2-methoxy-phenol] | 400
11 | COc1cc(-c2nn(C)/c(=N/C3CCCCC3)s2)ccc1O [Example I27, 4-(5-Cyclohexylimino-4-methyl-4,5-dihydro-[1,3,4]thiadiazol-2-yl)-2-methoxy-phenol] | 460
12 | CN(C)c1ccc(-c2nn(C)/c(=N/C3CCCCC3)s2)cc1 [Example I29, [4-(5-Cyclohexylimino-4-methyl-4,5-dihydro-[1,3,4]thiadiazol-2-yl)-phenyl]-dimethyl-amine] | 300
13 | COc1ccc(-c2nn(C)/c(=N/C3CCCCC3)s2)cc1OC [Example I34, Cyclohexyl-[5-(3,4-dimethoxy-phenyl)-3-methyl-3H-[1,3,4]thiadiazol-2-ylidene]-amine] | 630
14 | COc1ccc(-c2nn(C)/c(=N/C3CCCCC3)s2)cc1Br [Example I35, [5-(3-Bromo-4-methoxy-phenyl)-3-methyl-3H-[1,3,4]thiadiazol-2-ylidene]-cyclohexyl-amine] | 580
15 | Cn1nc(-c2cccnc2)s/c1=N\C1CCCCC1 [Example I38, Cyclohexyl-(3-methyl-5-pyridin-3-yl-3H-[1,3,4]thiadiazol-2-ylidene)-amine] | 340
16 | Cn1nc(-c2ccc3c(c2)OCO3)s/c1=N\C1CCCCC1 [Example I40, (5-Benzo[1,3]dioxol-5-yl-3-methyl-3H-[1,3,4]thiadiazol-2-ylidene)-cyclohexyl-amine] | 450
17 | COc1cc(-c2nn(C)/c(=N/C3CCCCC3)s2)cc(OC)c1OC [Example I41, Cyclohexyl-[3-methyl-5-(3,4,5-trimethoxy-phenyl)-3H-[1,3,4]thiadiazol-2-ylidene]-amine] | 1300
18 | Cn1nc(-c2ccccc2Cl)s/c1=N\C1CCCCC1 [I10,1, [5-(2-Chloro-phenyl)-3-methyl-3H-[1,3,4]thiadiazol-2-ylidene]-cyclohexyl-amine] | 1300
19 | Cn1nc(-c2cc(Cl)cc(Cl)c2)s/c1=N\C1CCCCC1 [I17,1, Cyclohexyl-[5-(3,5-dichloro-phenyl)-3-methyl-3H-[1,3,4]thiadiazol-2-ylidene]-amine] | 1300
20 | Cn1nc(-c2ccc(-c3ccccn3)s2)s/c1=N\C1CCCCC1 [I18,2, Cyclohexyl-[3-methyl-5-(5-pyridin-2-yl-thiophen-2-yl)-3H-[1,3,4]thiadiazol-2-ylidene]-amine] | 320

The next compounds have a lower IC50 than those just listed; values first:

Row | IC50 [nM] | SMILES
21 | 280 | Cn1nc(-c2ccc(S(C)(=O)=O)cc2)s/c1=N\[C@@H]1CCCC[C@H]1O (relative stereo) [Example I9, (1R*,2R*)-2-[5-(4-Methanesulfonyl-phenyl)-3-methyl-3H-[1,3,4]thiadiazol-2-ylideneamino-cyclohexanol]
22 | 150 | Cn1nc(-c2ccc(Cl)cc2)s/c1=N\c1cccc(C(=O)O)c1 [Example I1, 3-[5-(4-Chloro-phenyl)-3-methyl-3H-[1,3,4]thiadiazol-2-ylideneamino]-benzoic acid]
23 | 150 | Cn1nc(-c2ccc(S(C)(=O)=O)cc2)s/c1=N\c1cccc(C(=O)O)c1 [Example I4]
24 | 290 | Cn1nc(-c2ccncc2)s/c1=N\C1CCCCC1 [Example I12, Cyclohexyl-(3-methyl-5-pyridin-4-yl-3H-[1,3,4]thiadiazol-2-ylidene)-amine]
25 | 270 | Cn1nc(-c2ccc(C#N)cc2)s/c1=N\C1CCCCC1 [Example I14, 4-(5-Cyclohexylimino-4-methyl-4,5-dihydro-[1,3,4]thiadiazol-2-yl)-benzonitrile]
26 | 140 | Cn1nc(-c2ccc(S(C)(=O)=O)cc2)s/c1=N\C1CCCCC1 [Example I15, Cyclohexyl-[5-(4-methanesulfonyl-phenyl)-3-methyl-3H-[1,3,4]thiadiazol-2-ylidene]-amine]
27 | 70 | Cn1nc(-c2ccc(Cl)c(S(N)(=O)=O)c2)s/c1=N\C1CCCCC1 [Example I19, 2-Chloro-5-(5-cyclohexylimino-4-methyl-4,5-dihydro-[1,3,4]thiadiazol-2-yl)-benzenesulfonamide]
28 | 150 | COC(=O)c1cccc(-c2nn(C)/c(=N/C3CCCCC3)s2)c1 [Example I21, 3-(5-Cyclohexylimino-4-methyl-4,5-dihydro-[1,3,4]thiadiazol-2-yl)-benzoic acid methyl ester]
29 | 230 | Cn1nc(-c2cccc3cccnc23)s/c1=N\C1CCCCC1 [Example I28, Cyclohexyl-(3-methyl-5-quinolin-8-yl-3H-[1,3,4]thiadiazol-2-ylidene)-amine]
30 | 140 | Cn1nc(-c2ccc(S(N)(=O)=O)cc2)s/c1=N\C1CCCCC1 [Example I30, 4-(5-Cyclohexylimino-4-methyl-4,5-dihydro-[1,3,4]thiadiazol-2-yl)-benzenesulfonamide]
31 | 230 | Cn1nc(-c2cc3cc(Cl)ccc3[nH]2)s/c1=N\C1CCCCC1 [Example I31, [5-(5-Chloro-1H-indol-2-yl)-3-methyl-3H-[1,3,4]thiadiazol-2-ylidene]-cyclohexyl-amine; compound with trifluoro-methanesulfonic acid]
32 | 230 | COc1ccc(-c2nn(C)/c(=N/C3CCCCC3)s2)cc1O [Example I32, 5-(5-Cyclohexylimino-4-methyl-4,5-dihydro-[1,3,4]thiadiazol-2-yl)-2-methoxy-phenol; compound with 1,1,1-trifluoro-methanesulfonic acid]
33 | 240 | Cn1nc(-c2ccc(O)cc2)s/c1=N\C1CCCCC1 [Example I33, 4-(5-Cyclohexylimino-4-methyl-4,5-dihydro-[1,3,4]thiadiazol-2-yl)-phenol; compound with 1,1,1-trifluoro-methanesulfonic acid]
34 | 290 | Cn1nc(-c2cccc(O)c2)s/c1=N\C1CCCCC1 [Example I36, 3-(5-Cyclohexylimino-4-methyl-4,5-dihydro-[1,3,4]thiadiazol-2-yl)-phenol]
35 | 230 | COC(=O)c1ccc(-c2nn(C)/c(=N/C3CCCCC3)s2)cc1 [Example I37, 4-(5-Cyclohexylimino-4-methyl-4,5-dihydro-[1,3,4]thiadiazol-2-yl)-benzoic acid methyl ester]
36 | 200 | Cn1nc(-c2cccc(S(N)(=O)=O)c2)s/c1=N\C1CCCCC1 [Example I39, 3-(5-Cyclohexylimino-4-methyl-4,5-dihydro-[1,3,4]thiadiazol-2-yl)-benzenesulfonamide]
37 | 130 | Cn1nc(-c2ccc(Cl)cc2)s/c1=N\c1ccc(F)c(C(=O)O)c1 [I2,1, 5-[5-(4-Chloro-phenyl)-3-methyl-3H[1,3,4]thiadiazol-2-ylideneamino]-2-fluoro-benzoic acid]
38 | 61 | COc1c(O)cc(-c2nn(C)/c(=N/C3CCCCC3)s2)cc1O [I18,3, 5-(5-Cyclohexylimino-4-methyl-4,5-dihydro[1,3,4]thiadiazol-2yl)-2-methoxy-benzene-1,3-diol; compound with trifluoro-methanesulfonic acid]
